Source: article PMC5923425, “Structural analysis of human ARS2 as a platform for co-transcriptional RNA sorting” (Nature Communications, 2018)

T1: NCBP3/2xCBP80 (Homo sapiens, UniProt Q53F19)
T1 construct: full-length NCBP3 (insect cells, tag cleaved) with CBP80 added (2x, apparently molar excess)
T1 sequence (Q53F19 1-620): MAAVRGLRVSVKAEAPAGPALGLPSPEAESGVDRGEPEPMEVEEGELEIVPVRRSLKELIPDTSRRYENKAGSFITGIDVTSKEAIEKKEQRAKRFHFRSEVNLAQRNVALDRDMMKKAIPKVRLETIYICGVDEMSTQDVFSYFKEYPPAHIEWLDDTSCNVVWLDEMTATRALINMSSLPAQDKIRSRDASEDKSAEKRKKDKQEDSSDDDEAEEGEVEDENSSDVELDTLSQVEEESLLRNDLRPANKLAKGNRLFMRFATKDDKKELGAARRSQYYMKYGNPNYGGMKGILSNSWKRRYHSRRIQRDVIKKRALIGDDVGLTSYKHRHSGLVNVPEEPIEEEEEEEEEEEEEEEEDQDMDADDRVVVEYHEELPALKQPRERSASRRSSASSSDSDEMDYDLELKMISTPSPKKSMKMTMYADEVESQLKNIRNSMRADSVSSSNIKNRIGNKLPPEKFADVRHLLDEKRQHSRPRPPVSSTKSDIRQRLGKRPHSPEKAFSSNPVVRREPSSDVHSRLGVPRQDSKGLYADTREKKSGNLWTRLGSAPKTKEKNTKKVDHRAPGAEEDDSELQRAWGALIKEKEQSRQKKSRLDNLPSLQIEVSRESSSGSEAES
T1 sequence (Q09161 20-790 partner limits assumed): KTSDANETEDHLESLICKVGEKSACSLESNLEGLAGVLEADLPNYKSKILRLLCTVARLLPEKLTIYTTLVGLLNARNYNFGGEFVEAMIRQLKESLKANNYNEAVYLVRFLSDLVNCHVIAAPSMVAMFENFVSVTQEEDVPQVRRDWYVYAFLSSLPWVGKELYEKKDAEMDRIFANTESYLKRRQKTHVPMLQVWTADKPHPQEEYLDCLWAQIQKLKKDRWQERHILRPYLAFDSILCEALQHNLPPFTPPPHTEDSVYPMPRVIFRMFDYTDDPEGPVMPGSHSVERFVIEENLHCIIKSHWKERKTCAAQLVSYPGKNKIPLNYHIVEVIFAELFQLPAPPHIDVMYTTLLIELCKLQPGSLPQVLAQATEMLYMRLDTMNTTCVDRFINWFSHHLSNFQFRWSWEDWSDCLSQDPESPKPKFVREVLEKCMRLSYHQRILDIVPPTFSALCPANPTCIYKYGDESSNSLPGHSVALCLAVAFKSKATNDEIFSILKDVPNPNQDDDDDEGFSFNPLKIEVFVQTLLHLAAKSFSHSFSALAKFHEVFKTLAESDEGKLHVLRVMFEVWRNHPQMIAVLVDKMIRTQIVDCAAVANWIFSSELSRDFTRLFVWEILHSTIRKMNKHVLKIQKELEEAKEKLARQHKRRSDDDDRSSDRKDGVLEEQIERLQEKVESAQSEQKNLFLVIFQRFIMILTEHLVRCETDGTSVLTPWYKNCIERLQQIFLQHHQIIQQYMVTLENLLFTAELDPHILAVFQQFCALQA

T2: CBP20/2xCBP80 (CBC) (Homo sapiens, UniProt P52298)
T2 construct: gene NCBP2; CBP20-CBP80 heterodimer, CBP80 added 2x (apparently molar excess)
T2 sequence (P52298 2-156): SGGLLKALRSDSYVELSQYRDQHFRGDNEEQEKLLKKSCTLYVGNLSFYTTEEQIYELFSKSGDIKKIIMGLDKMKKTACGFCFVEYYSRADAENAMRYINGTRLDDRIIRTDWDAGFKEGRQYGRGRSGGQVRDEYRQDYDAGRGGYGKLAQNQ
T2 sequence (Q09161 20-790 partner limits assumed): T1 sequence (Q09161 20-790 partner limits assumed)

T3: NCBP3 (full-length, residues 1–620) (Homo sapiens, UniProt Q53F19)
T3 construct: full-length residues 1-620, pFASTBac HTb, expressed in High Five insect cells, N-terminal His6 tag cleaved with TEV
T3 sequence (Q53F19 1-620): T1 sequence (Q53F19 1-620)

T4: NCBP3 1–282 (Homo sapiens, UniProt Q53F19)
T4 construct: N-terminal region with putative RRM domain, residues 1-282, pETM11, E. coli Rosetta 2, His6 tag cleaved with TEV
T4 sequence (Q53F19 1-282): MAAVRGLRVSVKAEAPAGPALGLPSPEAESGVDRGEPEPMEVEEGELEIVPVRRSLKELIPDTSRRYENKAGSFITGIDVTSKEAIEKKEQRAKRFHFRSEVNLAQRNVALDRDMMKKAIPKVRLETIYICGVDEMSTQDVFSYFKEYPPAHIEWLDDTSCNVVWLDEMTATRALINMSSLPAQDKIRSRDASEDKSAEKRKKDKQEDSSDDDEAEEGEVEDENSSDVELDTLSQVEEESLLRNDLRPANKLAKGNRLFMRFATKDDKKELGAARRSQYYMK

T5: CBP20 (Homo sapiens, UniProt P52298)
T5 construct: gene NCBP2; CBP20 alone, recombinant, purified as described previously
T5 sequence (P52298 2-156): T2 sequence (P52298 2-156)

T6: ARS2^147–871 (human, UniProt Q9BXP5-4 147-871)
T6 construct: human ARS2 (SRRT) isoform-e, 871 residues, residues 147-871, cloned into pETM11; also called hARS2; SRRT; source: E. coli Rosetta 2, purified (Ni-Sepharose, TEV cleavage, HiTrap Q, heparin if necessary, SEC); not shown: His6, N-terminal, cleaved
T6 sequence (looked up): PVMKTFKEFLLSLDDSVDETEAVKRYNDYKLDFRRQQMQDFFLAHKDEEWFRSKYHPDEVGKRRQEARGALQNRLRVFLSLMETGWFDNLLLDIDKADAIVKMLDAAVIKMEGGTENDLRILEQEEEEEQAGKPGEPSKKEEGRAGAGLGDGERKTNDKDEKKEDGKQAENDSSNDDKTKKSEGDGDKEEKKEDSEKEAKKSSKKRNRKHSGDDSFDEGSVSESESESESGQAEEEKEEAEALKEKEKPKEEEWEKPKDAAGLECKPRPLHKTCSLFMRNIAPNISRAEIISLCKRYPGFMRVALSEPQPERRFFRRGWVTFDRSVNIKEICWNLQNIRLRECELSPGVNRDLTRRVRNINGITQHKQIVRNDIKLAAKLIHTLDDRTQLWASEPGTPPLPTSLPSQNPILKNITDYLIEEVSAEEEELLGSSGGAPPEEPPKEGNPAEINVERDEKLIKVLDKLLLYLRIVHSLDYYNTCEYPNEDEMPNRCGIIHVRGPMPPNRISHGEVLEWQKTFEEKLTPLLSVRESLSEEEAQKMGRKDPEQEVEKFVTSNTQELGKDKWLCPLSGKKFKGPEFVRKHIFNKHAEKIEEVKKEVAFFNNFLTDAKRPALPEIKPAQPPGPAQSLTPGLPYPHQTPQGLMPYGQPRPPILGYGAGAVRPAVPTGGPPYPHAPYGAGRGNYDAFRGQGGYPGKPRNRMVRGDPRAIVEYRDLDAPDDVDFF

B1: GST–FLASH^903–943 (domain or fragment, UniProt Q9UKL3 903-943, looked up)
chain: SDLNKENQKPIYKSDKCTEADTCKNSPLDELEEGEIRSDSE
notes: FLASH (FLICE-associated huge protein), residues 903-943, holds FARB; cloned into the GST-vector pETM30; source: E. coli, expressed and purified; immobilised on glutathione sepharose

Assays:
NCBP3/2xCBP80 = biological target: T1, NCBP3/2xCBP80; assay: isothermal titration calorimetry; type: binding
From the text: isothermal titration calorimetry on NCBP3/2xCBP80

CBP20/2xCBP80 (CBC) = biological target: T2, CBP20/2xCBP80 (CBC); assay: isothermal titration calorimetry; type: binding; conditions: 250 mM NaCl, 20 mM HEPES, 2 mM TCEP, pH 7.8, 25 °C; CBP80 present (2x)
From the text: isothermal titration calorimetry on CBP20/2xCBP80 (CBC)

[1] = biological target: T3, NCBP3 (full-length, residues 1–620); assay: isothermal titration calorimetry; type: binding
From the text: isothermal titration calorimetry on NCBP3 (full-length, residues 1–620)

NCBP3 1–282 = biological target: T4, NCBP3 1–282; assay: isothermal titration calorimetry; type: binding
From the text: isothermal titration calorimetry on NCBP3 1–282

CBP20 = biological target: T5, CBP20; assay: isothermal titration calorimetry; type: binding; conditions: 250 mM NaCl, 20 mM HEPES, 2 mM TCEP, pH 7.8, 25 °C; CBP20 without CBP80
From the text: isothermal titration calorimetry on CBP20

ARS2^147–871 = biological target: T6, ARS2^147–871; assay: pull-down; GST–FLASH 903–943 (or GST as control) immobilised on glutathione sepharose, incubated with purified ARS2 constructs 30 min at 10 °C; flow-through, wash and elution on Coomassie-stained SDS-PAGE; conditions: both partners purified

Molecule | Kd (NCBP3/2xCBP80) [µM] | Kd (CBP20/2xCBP80 (CBC)) [nM] | Kd [1] [µM] | Kd (NCBP3 1–282) [µM] | Kd (CBP20) [µM] | binding result (ARS2^147–871)
C[n+]1cn([C@@H]2O[C@H](COP(=O)(O)OP(=O)(O)OP(=O)(O)O)[C@@H](O)[C@H]2O)c2nc(N)[nH]c(=O)c21 [m^7GTP] | 7.9 ± 0.9 | 370 ± 40 | 4.6 ± 1 | 8.3 ± 3 | 84 ± 4.2 | 
B1 |  |  |  |  |  | binds
